# From PubChem BioAssay (NCI)
#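 Compound exposure: 48 hours, 5 concentrations, 96-well plates. TGI marks complete inhibition of growth.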 Where a SMILES comes first, the peptide text is derived from it. The star is where a group is joined. Cbz = O=C(OCc1ccccc1)*
# Tested on: HOP-62 NSCLC
# Assay: NCI anticancer screen, dose series, 48 h
row,Structure (SMILES),TGI [µM]
1,O=C(CNS(=O)(=O)Cc1ccccc1)NNc1ccccc1,> 100

# Tested on: HOP-92 NSCLC
# Assay: NCI anticancer screen, dose series, 48 h
row,Structure (SMILES),TGI [µM]
1,CC(NC(=O)C(NC(=O)OCc1ccccc1)C(C)C)C(=O)NCC(=O)O (stereo not drawn) (Cbz-Val-Ala-Gly-OH; configuration not given here),> 100
2,[N-]=[N+]=CC(=O)OC1Cc2ccccc2C1,> 100
3,COc1ccc(/C=C2\c3cc(OC)c(OC)cc3CCN2C(=O)c2ccccc2)cc1OC,> 100
4,O=c1oc2c/c(=C\c3ccc([N+](=O)[O-])cc3)c(=O)c3cccc1c3-2,> 100
5,FC(F)(F)c1ccc2c(c1)nc(-c1ccc(Cl)cc1)n2CC1CCCN2CCCCC12 (stereo not drawn),29.1
6,Nc1ccccc1N=Cc1cc2cc([N+](=O)[O-])ccc2s1,55.5
7,O=C(CNS(=O)(=O)Cc1ccccc1)NNc1ccccc1,> 100

# Tested on: HS 578T breast
# Assay: NCI anticancer screen, dose series, 48 h
row,Structure (SMILES),TGI [µM]
1,CC(NC(=O)C(NC(=O)OCc1ccccc1)C(C)C)C(=O)NCC(=O)O (stereo not drawn) (Cbz-Val-Ala-Gly-OH; configuration not given here),> 100
2,[N-]=[N+]=CC(=O)OC1Cc2ccccc2C1,> 100
3,COc1ccc(/C=C2\c3cc(OC)c(OC)cc3CCN2C(=O)c2ccccc2)cc1OC,> 100
4,O=c1oc2c/c(=C\c3ccc([N+](=O)[O-])cc3)c(=O)c3cccc1c3-2,> 100
5,FC(F)(F)c1ccc2c(c1)nc(-c1ccc(Cl)cc1)n2CC1CCCN2CCCCC12 (stereo not drawn),36.3
6,Nc1ccccc1N=Cc1cc2cc([N+](=O)[O-])ccc2s1,41.8
7,O=C(CNS(=O)(=O)Cc1ccccc1)NNc1ccccc1,> 100

# Tested on: HT29 colon
# Assay: NCI anticancer screen, dose series, 48 h
row,Structure (SMILES),TGI [µM]
1,CC(NC(=O)C(NC(=O)OCc1ccccc1)C(C)C)C(=O)NCC(=O)O (stereo not drawn) (Cbz-Val-Ala-Gly-OH; configuration not given here),> 100
2,[N-]=[N+]=CC(=O)OC1Cc2ccccc2C1,> 100
3,COc1ccc(/C=C2\c3cc(OC)c(OC)cc3CCN2C(=O)c2ccccc2)cc1OC,> 100
4,O=c1oc2c/c(=C\c3ccc([N+](=O)[O-])cc3)c(=O)c3cccc1c3-2,> 100
5,FC(F)(F)c1ccc2c(c1)nc(-c1ccc(Cl)cc1)n2CC1CCCN2CCCCC12 (stereo not drawn),19
6,Nc1ccccc1N=Cc1cc2cc([N+](=O)[O-])ccc2s1,> 100
7,O=C(CNS(=O)(=O)Cc1ccccc1)NNc1ccccc1,> 100

# Tested on: IGROV1 ovarian
# Assay: NCI anticancer screen, dose series, 48 h
row,Structure (SMILES),TGI [µM]
1,CC(NC(=O)C(NC(=O)OCc1ccccc1)C(C)C)C(=O)NCC(=O)O (stereo not drawn) (Cbz-Val-Ala-Gly-OH; configuration not given here),> 100
2,[N-]=[N+]=CC(=O)OC1Cc2ccccc2C1,> 100
3,COc1ccc(/C=C2\c3cc(OC)c(OC)cc3CCN2C(=O)c2ccccc2)cc1OC,> 100
4,O=c1oc2c/c(=C\c3ccc([N+](=O)[O-])cc3)c(=O)c3cccc1c3-2,> 100
5,FC(F)(F)c1ccc2c(c1)nc(-c1ccc(Cl)cc1)n2CC1CCCN2CCCCC12 (stereo not drawn),27.8
6,Nc1ccccc1N=Cc1cc2cc([N+](=O)[O-])ccc2s1,99.3
7,O=C(CNS(=O)(=O)Cc1ccccc1)NNc1ccccc1,> 100

# Tested on: K-562 leukemia
# Assay: NCI anticancer screen, dose series, 48 h
row,Structure (SMILES),TGI [µM]
1,CC(NC(=O)C(NC(=O)OCc1ccccc1)C(C)C)C(=O)NCC(=O)O (stereo not drawn) (Cbz-Val-Ala-Gly-OH; configuration not given here),> 100
2,[N-]=[N+]=CC(=O)OC1Cc2ccccc2C1,> 100
3,COc1ccc(/C=C2\c3cc(OC)c(OC)cc3CCN2C(=O)c2ccccc2)cc1OC,> 100
4,O=c1oc2c/c(=C\c3ccc([N+](=O)[O-])cc3)c(=O)c3cccc1c3-2,> 100
5,Nc1ccccc1N=Cc1cc2cc([N+](=O)[O-])ccc2s1,35.1
6,O=C(CNS(=O)(=O)Cc1ccccc1)NNc1ccccc1,> 100

# Tested on: KM12 colon
# Assay: NCI anticancer screen, dose series, 48 h
row,Structure (SMILES),TGI [µM]
1,CC(NC(=O)C(NC(=O)OCc1ccccc1)C(C)C)C(=O)NCC(=O)O (stereo not drawn) (Cbz-Val-Ala-Gly-OH; configuration not given here),> 100
2,[N-]=[N+]=CC(=O)OC1Cc2ccccc2C1,> 100
3,COc1ccc(/C=C2\c3cc(OC)c(OC)cc3CCN2C(=O)c2ccccc2)cc1OC,> 100
4,O=c1oc2c/c(=C\c3ccc([N+](=O)[O-])cc3)c(=O)c3cccc1c3-2,> 100
5,FC(F)(F)c1ccc2c(c1)nc(-c1ccc(Cl)cc1)n2CC1CCCN2CCCCC12 (stereo not drawn),41.8
6,Nc1ccccc1N=Cc1cc2cc([N+](=O)[O-])ccc2s1,> 100
7,O=C(CNS(=O)(=O)Cc1ccccc1)NNc1ccccc1,> 100

# Tested on: LOX IMVI melanoma
# Assay: NCI anticancer screen, dose series, 48 h
row,Structure (SMILES),TGI [µM]
1,[N-]=[N+]=CC(=O)OC1Cc2ccccc2C1,> 100
2,COc1ccc(/C=C2\c3cc(OC)c(OC)cc3CCN2C(=O)c2ccccc2)cc1OC,> 100
3,O=c1oc2c/c(=C\c3ccc([N+](=O)[O-])cc3)c(=O)c3cccc1c3-2,> 100
4,FC(F)(F)c1ccc2c(c1)nc(-c1ccc(Cl)cc1)n2CC1CCCN2CCCCC12 (stereo not drawn),29.8
5,Nc1ccccc1N=Cc1cc2cc([N+](=O)[O-])ccc2s1,97.9
6,O=C(CNS(=O)(=O)Cc1ccccc1)NNc1ccccc1,> 100

# Tested on: M14 melanoma
# Assay: NCI anticancer screen, dose series, 48 h
row,Structure (SMILES),TGI [µM]
1,CC(NC(=O)C(NC(=O)OCc1ccccc1)C(C)C)C(=O)NCC(=O)O (stereo not drawn) (Cbz-Val-Ala-Gly-OH; configuration not given here),> 100
2,[N-]=[N+]=CC(=O)OC1Cc2ccccc2C1,> 100
3,COc1ccc(/C=C2\c3cc(OC)c(OC)cc3CCN2C(=O)c2ccccc2)cc1OC,> 100
4,O=c1oc2c/c(=C\c3ccc([N+](=O)[O-])cc3)c(=O)c3cccc1c3-2,> 100
5,FC(F)(F)c1ccc2c(c1)nc(-c1ccc(Cl)cc1)n2CC1CCCN2CCCCC12 (stereo not drawn),28
6,Nc1ccccc1N=Cc1cc2cc([N+](=O)[O-])ccc2s1,82.8
7,O=C(CNS(=O)(=O)Cc1ccccc1)NNc1ccccc1,> 100

# Tested on: MALME-3M melanoma
# Assay: NCI anticancer screen, dose series, 48 h
row,Structure (SMILES),TGI [µM]
1,CC(NC(=O)C(NC(=O)OCc1ccccc1)C(C)C)C(=O)NCC(=O)O (stereo not drawn) (Cbz-Val-Ala-Gly-OH; configuration not given here),> 100
2,[N-]=[N+]=CC(=O)OC1Cc2ccccc2C1,> 100
3,COc1ccc(/C=C2\c3cc(OC)c(OC)cc3CCN2C(=O)c2ccccc2)cc1OC,71.1
4,O=c1oc2c/c(=C\c3ccc([N+](=O)[O-])cc3)c(=O)c3cccc1c3-2,> 100
5,FC(F)(F)c1ccc2c(c1)nc(-c1ccc(Cl)cc1)n2CC1CCCN2CCCCC12 (stereo not drawn),29.8
6,Nc1ccccc1N=Cc1cc2cc([N+](=O)[O-])ccc2s1,81.7
7,O=C(CNS(=O)(=O)Cc1ccccc1)NNc1ccccc1,> 100

# Tested on: MCF7 breast
# Assay: NCI anticancer screen, dose series, 48 h
row,Structure (SMILES),TGI [µM]
1,CC(NC(=O)C(NC(=O)OCc1ccccc1)C(C)C)C(=O)NCC(=O)O (stereo not drawn) (Cbz-Val-Ala-Gly-OH; configuration not given here),> 100
2,[N-]=[N+]=CC(=O)OC1Cc2ccccc2C1,> 100
3,COc1ccc(/C=C2\c3cc(OC)c(OC)cc3CCN2C(=O)c2ccccc2)cc1OC,> 100
4,O=c1oc2c/c(=C\c3ccc([N+](=O)[O-])cc3)c(=O)c3cccc1c3-2,> 100
5,FC(F)(F)c1ccc2c(c1)nc(-c1ccc(Cl)cc1)n2CC1CCCN2CCCCC12 (stereo not drawn),29.8
6,Nc1ccccc1N=Cc1cc2cc([N+](=O)[O-])ccc2s1,23
7,O=C(CNS(=O)(=O)Cc1ccccc1)NNc1ccccc1,> 100

# Tested on: MDA-MB-231 breast
# Assay: NCI anticancer screen, dose series, 48 h
row,Structure (SMILES),TGI [µM]
1,CC(NC(=O)C(NC(=O)OCc1ccccc1)C(C)C)C(=O)NCC(=O)O (stereo not drawn) (Cbz-Val-Ala-Gly-OH; configuration not given here),> 100
2,[N-]=[N+]=CC(=O)OC1Cc2ccccc2C1,> 100
3,COc1ccc(/C=C2\c3cc(OC)c(OC)cc3CCN2C(=O)c2ccccc2)cc1OC,> 100
4,O=c1oc2c/c(=C\c3ccc([N+](=O)[O-])cc3)c(=O)c3cccc1c3-2,> 100
5,FC(F)(F)c1ccc2c(c1)nc(-c1ccc(Cl)cc1)n2CC1CCCN2CCCCC12 (stereo not drawn),20.3
6,Nc1ccccc1N=Cc1cc2cc([N+](=O)[O-])ccc2s1,39.2
7,O=C(CNS(=O)(=O)Cc1ccccc1)NNc1ccccc1,> 100

# Tested on: MDA-MB-435
# Assay: NCI anticancer screen, dose series, 48 h
row,Structure (SMILES),TGI [µM]
1,CC(NC(=O)C(NC(=O)OCc1ccccc1)C(C)C)C(=O)NCC(=O)O (stereo not drawn) (Cbz-Val-Ala-Gly-OH; configuration not given here),> 100
2,[N-]=[N+]=CC(=O)OC1Cc2ccccc2C1,> 100
3,COc1ccc(/C=C2\c3cc(OC)c(OC)cc3CCN2C(=O)c2ccccc2)cc1OC,49
4,O=c1oc2c/c(=C\c3ccc([N+](=O)[O-])cc3)c(=O)c3cccc1c3-2,> 100
5,FC(F)(F)c1ccc2c(c1)nc(-c1ccc(Cl)cc1)n2CC1CCCN2CCCCC12 (stereo not drawn),35.8
6,Nc1ccccc1N=Cc1cc2cc([N+](=O)[O-])ccc2s1,> 100
7,O=C(CNS(=O)(=O)Cc1ccccc1)NNc1ccccc1,> 100

# Tested on: MDA-N
# Assay: NCI anticancer screen, dose series, 48 h
row,Structure (SMILES),TGI [µM]
1,CC(NC(=O)C(NC(=O)OCc1ccccc1)C(C)C)C(=O)NCC(=O)O (stereo not drawn) (Cbz-Val-Ala-Gly-OH; configuration not given here),> 100
2,[N-]=[N+]=CC(=O)OC1Cc2ccccc2C1,> 100
3,COc1ccc(/C=C2\c3cc(OC)c(OC)cc3CCN2C(=O)c2ccccc2)cc1OC,65.2
4,O=c1oc2c/c(=C\c3ccc([N+](=O)[O-])cc3)c(=O)c3cccc1c3-2,> 100
5,FC(F)(F)c1ccc2c(c1)nc(-c1ccc(Cl)cc1)n2CC1CCCN2CCCCC12 (stereo not drawn),29.9
6,Nc1ccccc1N=Cc1cc2cc([N+](=O)[O-])ccc2s1,> 100
7,O=C(CNS(=O)(=O)Cc1ccccc1)NNc1ccccc1,> 100

# Tested on: MOLT-4 leukemia
# Assay: NCI anticancer screen, dose series, 48 h
row,Structure (SMILES),TGI [µM]
1,CC(NC(=O)C(NC(=O)OCc1ccccc1)C(C)C)C(=O)NCC(=O)O (stereo not drawn) (Cbz-Val-Ala-Gly-OH; configuration not given here),> 100
2,[N-]=[N+]=CC(=O)OC1Cc2ccccc2C1,> 100
3,COc1ccc(/C=C2\c3cc(OC)c(OC)cc3CCN2C(=O)c2ccccc2)cc1OC,80.6
4,O=c1oc2c/c(=C\c3ccc([N+](=O)[O-])cc3)c(=O)c3cccc1c3-2,> 100
5,FC(F)(F)c1ccc2c(c1)nc(-c1ccc(Cl)cc1)n2CC1CCCN2CCCCC12 (stereo not drawn),13
6,Nc1ccccc1N=Cc1cc2cc([N+](=O)[O-])ccc2s1,13.6
7,O=C(CNS(=O)(=O)Cc1ccccc1)NNc1ccccc1,> 100

# Tested on: NCI-H226 lung
# Assay: NCI anticancer screen, dose series, 48 h
row,Structure (SMILES),TGI [µM]
1,CC(NC(=O)C(NC(=O)OCc1ccccc1)C(C)C)C(=O)NCC(=O)O (stereo not drawn) (Cbz-Val-Ala-Gly-OH; configuration not given here),> 100
